According to patent US4996212A, “Antiinflammatory and anti-hyperproliferative compounds” (Schering Corporation, priority 1989, dated 1991):

Key:
5-lipoxygenase = biological target: T1, 5-lipoxygenase (Rattus norvegicus, UniProt P12527); test: 5-lipoxygenase activity / arachidonic acid metabolism in rat neutrophils; format: cell-based; conditions: compound concentration 5×^10-5 Molar, [14C] arachidonic acid
T1 construct: at 3-12×10^7 intact neutrophils per ml; endogenous in cells; host or cells: neutrophils from the pleural exudate of male Wistar-Lewis rats (reversed passive Arthus reaction)
T1 sequence (P12527 1-673): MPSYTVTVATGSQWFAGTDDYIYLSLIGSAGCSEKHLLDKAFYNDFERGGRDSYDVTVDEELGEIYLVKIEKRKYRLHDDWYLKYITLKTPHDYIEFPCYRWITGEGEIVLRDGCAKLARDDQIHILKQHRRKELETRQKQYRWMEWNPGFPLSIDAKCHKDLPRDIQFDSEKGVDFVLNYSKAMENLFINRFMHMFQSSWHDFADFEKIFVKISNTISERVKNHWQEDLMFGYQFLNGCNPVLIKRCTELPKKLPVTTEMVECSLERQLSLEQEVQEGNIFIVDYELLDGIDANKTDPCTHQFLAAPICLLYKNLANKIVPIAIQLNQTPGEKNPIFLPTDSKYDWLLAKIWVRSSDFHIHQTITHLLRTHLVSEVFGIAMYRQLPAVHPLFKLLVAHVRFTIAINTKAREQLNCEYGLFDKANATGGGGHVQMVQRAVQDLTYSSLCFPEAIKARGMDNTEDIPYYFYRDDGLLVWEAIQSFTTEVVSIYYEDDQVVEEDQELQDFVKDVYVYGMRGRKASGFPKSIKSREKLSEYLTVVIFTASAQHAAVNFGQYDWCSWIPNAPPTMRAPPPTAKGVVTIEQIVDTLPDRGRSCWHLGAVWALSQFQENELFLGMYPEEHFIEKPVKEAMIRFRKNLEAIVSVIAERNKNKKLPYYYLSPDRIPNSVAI
Experimental: The effect of the compounds of the invention on 5-lipoxygenase activity is determined using rat neutrophils. Male Wistar-Lewis rats are injected intravenously with 5 mg BSA in 0.2 ml pyrogen free saline followed by an intrapleural injection of 500 ug of the IgG fraction of rabbit anti-BSA (Cappel Labs., Lot 17782) in 0.2 ml pyrogen free saline. Injections are made under light ether anesthesia. Four hours later, the pleural cavity exudate consisting of 85 to 95% neutrophils is removed. Neutrophils are isolated from the pleural exudates by centrifugation of 4° C. for 10 min at 200×g. The cell pellet is resuspended in 17 mM Tris HCl buffer, pH 7.2, containing 0.75% NH4 Cl to lyse contaminating erythrocytes followed by centrifugation at 4° C. for 5 min at 200×g. The pelleted neutrophils are rewashed in 50 mM Tris HCl, pH 7.4, containing 100 mM NaCl, followed by the same centrifugation. The cell pellet is resuspended in 50 mM Tris HCl, pH 7.4, containing 100 mM NaCl and 1 mM CaCl2, at 3-12×10^7 intact neutrophils per ml.
Solutions of compounds in methanol are dried, then resuspended in the cell suspension for 4 min. Arachidonic acid metabolism is determined by incubating 0.1 ml of this suspension with 40 uM [×^14 C] arachidonic acid (AA) (Amersham, 59 Ci/mole), in the presence of 0.1% BRIJ 56 and 10 uM A23187. Arachidonic acid metabolism as well as the various drug and reagent abbreviations are described in detail in Arch. Dermatol, Vol. 119, pages 541 to 547 (July 1983), the teachings of which are incorporated herein by reference. Assays run in triplicate are initiated by adding cells with inhibitor to a film of the BRIJ 56, arachidonic acid and A23187 at 37° C. After one minute, reactions are terminated by the addition of 2.4 ml of a chloroform:methanol (1:1 v/v) mixture and 0.9 ml of 0.1% formic acid. […] Products, leukotriene B4 (LTB4), 12-hydroxy heptadecatrienoic acid (HHT) and 5-hydroxy icosatetraenoic acid (5-HETE), are located by autoradiography and appropriate regions of the thin layer plates are scraped and counted in a liquid scintillation counter. […]

pleural cavity of rats = test: reverse passive Arthus reaction in the pleural cavity of rats; format: in vivo; conditions: po, rat pleural cavity RPAR
Text: Another procedure for testing for acute antiinflammatory activity measures the reverse passive Arthus reaction in the pleural cavity of rats as described in Myers et al., Inflammation, Vol. 9, No. 1, 1985, pp. 91-98.

[1] = test system: Male Lewis inbred albino rats; test: Reversed Passive Arthus Reaction (RPAR), paw volume; format: in vivo; conditions: po, rat paw RPAR
Experimental: Reversed Passive Arthus Reaction (RPAR) Animals, Materials and Methods
Male Lewis inbred albino rats weighing 180-220 grams obtained from Charles River Breeding Laboratories are used in these experiments. The rats are housed 3 animals/cage and food and water are allowed ad libitum.
The animals are numbered 1-3 in each cage and color marked for identification purposes.
All reagents and drugs are prepared just prior to the study. Crystallized and lyophilized bovine serum albumin (BSA), obtained from Sigma Chemical Company, is solubilized without shaking in cold sterile pyrogen free saline (10 mg/ml). Lyophilized anti-bovine serum albumin (IgG Fraction), obtained from Cappel Laboratories, is suspended in sterile distilled water and diluted with cold pyrogen free saline (PFS) just prior to use. The final concentration of anti-bovine serum albumin is 0.5 mg/ml of PFS. Both BSA and anti-BSA solutions are iced during use. Drugs are suspended or solubilized in an aqueous solution of methyl cellulose (MC) with a homogenizer just prior to administration.
Groups of animals (6/group) are dosed with drug in MC by gavage one hour prior to sensitization with BSA. […] The volume of mercury displaced is converted to weight and recorded. […] Paw volumes are also recorded with a plethysmograph during the development of the inflammation at 2 and 4 hours post-challenge.

inhibition of HETE production (5-lipoxygenase)	inhibition of HHT production (5-lipoxygenase)	inhibition of LTB4 production (5-lipoxygenase)	Structure (SMILES)	ED50 (pleural cavity of rats)	ED50 [1]
~60%	about 40%	~60%	O=c1c2c(c3cccnc3n1-c1ccccc1)N(c1ccccc1)CC2 [1,2,3,5-tetrahydro-1,5-diphenyl-4H-pyrrolo[3,2-c][1,8]napthyridin-4-one]	–	–
–	–	–	CCOC(=O)N1CCc2c1c1cccnc1n(-c1ccccc1)c2=O [2,3,4,5-tetrahydro-4-oxo-5-phenyl-1H-pyrrolo[3,2-c][1,8]napthyridine-1-carboxylic acid, ethyl ester]	~25 mg/kg	–
–	–	–	O=c1c2c(c3cccnc3n1-c1ccccc1)NCC2 [1,2,3,5-tetrahydro-5-phenyl-4H-pyrrolo[3,2-c][I, 8]napthyridin-4-one]	< 25 mg/kg	~25 mg/kg
